For the assay, the system named is CEM cells HIV-1 protection, formazan growth assay. In words: NCI AIDS Antiviral Assay. Particulars: for IC50: measured here: growth of uninfected CEM cells. An outline of the steps:
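Five concentrations of each compound were applied to infected and uninfected human CEM cells. Protection from HIV-1 was judged from growth measured with a soluble formazan assay.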

Calls of active or inactive are those of the source.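 How the source made its calls: active means compounds giving half or more protection of infected cells from virus-caused growth loss, again on retest; inactive means the rest.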 Bounds are passed on as bounds.

By EC50 is commonly meant the concentration giving half of the maximal effect. The IC50 is the point on the concentration scale where inhibition reaches its midpoint. High values mean a need for much substance, low ones inhibition by little substance. For the compound `CC(C)Nc1n[nH]c(=O)n1C(C)C`, the EC50 was above 200 µM and the IC50 is above 200 µM.
For the compound `CC1(C)OC(=O)C(c2cccs2)C(=O)O1`, the EC50 was above 44.7 µM and the IC50 was above 44.7 µM.
For `Cc1nc2nn(C)cc2c(=O)n1/N=C/c1ccccc1`, the EC50 was above 200 µM and the IC50 is above 200 µM.
As to `CC(Oc1ccc2c(-c3ccc(Cl)cc3)cc(=O)oc2c1)C(=O)O` (configuration not stated), the outcome was inactive.
As to `O=C1c2ccccc2OP(=O)(OCC(F)(F)F)OC1(C(F)(F)F)C(F)(F)F` (configuration not stated), the EC50 was above 575 µM and the IC50 was 126 µM.
On the same counts, the results for `C[N+](C)(C)CC1CCC/C1=N/O` (configuration not stated) are above 832 µM and above 832 µM.
Regarding `CNc1ncn(-c2c(C)cccc2C)c(=O)n1`, the EC50 is above 200 µM and the IC50 was above 200 µM.
For `CC(=O)NCc1nc(C#N)c(N)o1`, the EC50 is above 200 µM and the IC50 was above 200 µM.
Regarding `O=C(O)Cc1ccccc1`, the EC50 is above 200 µM and the half-inhibitory concentration (IC50) was above 200 µM.
For `CC1(C)OC2CN(C(=O)OCc3ccccc3)C(CO)C2O1` (configuration not stated), the result was inactive.
Take `O=C1OC(=O)C2C1C(c1ccc([N+](=O)[O-])cc1)N1C3C(=O)OC(=O)C3C(c3ccc([N+](=O)[O-])cc3)N21` (configuration not stated): the EC50 was above 27.5 µM and the IC50 was above 27.5 µM.
Turning to `COc1cccc(/C=N/[N-]C(N)=O)c1[O-].[Co+2].[OH3+].c1ccncc1`, the EC50 is above 14.5 µM and the IC50 was above 14.5 µM.
As to `O=[N+]([O-])c1ccc(C[N+]23CCN(CC2)CC3)cc1`, the outcome was inactive.
For the compound `Cc1nc2ccc(S(=O)(=O)NS(=O)(=O)c3ccc(-c4ccccc4)cc3)cc2c(=O)n1NS(=O)(=O)c1ccc(-c2ccccc2)cc1`, the EC50 was above 200 µM and the IC50 is 170 µM.
On the same counts, the results for `C[C@]12CCC(=O)C=C1CC[C@@H]1[C@@H]2C(=O)C[C@@]2(C)[C@H]1CC[C@]2(O)C(=O)CO` are above 200 µM and above 200 µM.
On to `OCC1OC(n2ccc3cnccc32)CC1O` (configuration not stated), for which the result was inactive.
With `O=S1(=O)CC2(N3CCOCC3)CCCC21` (configuration not stated), the EC50 is above 1070 µM and the concentration for half-maximal inhibition (IC50) was 229 µM.
On the same counts, the results for `CCCCCCCCCCCCCCCCCCNc1ccn(C2OC(COP(=O)(O)OCC(COP(=O)(O)OCC3OC(n4cc(C)c(=O)[nH]c4=O)CC3N=[N+]=[N-])OC(=O)CCCCCCCCCCCCCCC)C(O)C2O)c(=O)n1` (configuration not stated) are 11.2 µM and 69.2 µM.
The like results for `CC[C@]1(O)C[C@H]2CN(CCc3c([nH]c4ccccc34)[C@@](C(=O)OC)(c3cc4c(cc3OC)N(C=O)[C@H]3[C@@](O)(C(=O)OC)[C@H](OC(C)=O)[C@]5(CC)C=CCN6CC[C@]43[C@@H]65)C2)C1` were, in that order, above 0.0302 µM and 0.000525 µM.
Consider `O=c1cccc(-c2cccc(=O)[nH]2)[nH]1`, for which the outcome was inactive.
As to `OC(C1CO1)C(O)C1CO1` (configuration not stated), the EC50 was above 427 µM and the IC50 was 0.891 µM.
Consider `CC(C)CCC[C@@H](C)C1CCC2C3CCC4C[C@@](O)(C(c5cc(Cl)c(O)c(C(=O)O)c5)c5cc(Cl)c(O)c(C(=O)O)c5)CC[C@]4(C)C3CC[C@@]21C` (some centres not stated), for which the EC50 is above 200 µM and the IC50 was found to be 25.1 µM.
The like results for `COC(=O)c1cc(C(=CCCCC(=O)O)c2cc(Cl)c(OC)c(C(=O)OC)c2)cc(Cl)c1OC` were, in that order, above 200 µM and above 200 µM.
For the compound `CCOC(=O)/C(=C\c1ccc([N+](=O)[O-])cc1)C(C)=O`, the EC50 was above 257 µM and the IC50 came to 64.6 µM.
Regarding `O=c1oc2ccccc2cc1/C=N/N1C(=S)N(c2ccccc2)C(=Nc2ccccc2)C1=Nc1ccccc1`, the EC50 is above 200 µM and the IC50 was above 200 µM.
In the case of `Cn1ncc2c(c1=O)Nc1ccccc1S2(=O)=O`, the EC50 was above 112 µM and the IC50 is above 112 µM.
As for `O=C1NC2CC1C(O)C2O` (configuration not stated), the EC50 is above 200 µM and the IC50 is above 200 µM.
Turning to `Cc1ccc2c(c1C)C(=O)C1(Cc3cc4c(cc3C1=O)CCC4)C2` (configuration not stated), the EC50 was above 100 µM and the IC50 is above 100 µM.
As for `CCCc1cc(=O)oc2c3c(c4c(c12)OC(C)(C)C=C4)O[C@H](C)[C@@H](C)[C@@H]3OC(C)=O`, the EC50 is 1.7 µM and the IC50 was 26.9 µM.
`CCC=C(c1cc(Cl)c(OC)c(C(=O)OC)c1)c1cc(Cl)c(OC)c(C(=O)OC)c1`: the EC50 was above 8.32 µM and the IC50 is above 8.32 µM.
On to `O=C1CC2c3c(OCc4ccccc4)cc(OCc4ccccc4)cc3OC2O1` (configuration not stated), for which the EC50 was above 25.7 µM and the IC50 was above 25.7 µM.
As to `O=c1ccn(COC(COCc2ccccc2)COCc2ccccc2)c(=O)[nH]1`, the result was inactive.
In the case of `Cn1c(=O)c2nc(N3CCOCC3)cnc2n(C)c1=O`, the EC50 is above 200 µM and the half-inhibitory concentration (IC50) was above 200 µM.
Turning to `Oc1cccc2cccnc12`, the EC50 is above 1230 µM, the outcome was inactive and the IC50 is 2.34 µM.
For `CCN(CC)c1ccc(/C=C2/C[N+](C)(C)C/C(=C/c3ccc(N(CC)CC)cc3)C2=O)cc1`, the EC50 is above 6.61 µM and the IC50 was 6.46 µM.
`NC(=O)C(=O)N/N=C1\C(=O)N(c2ccc(Cl)cc2Cl)C(=O)C1C(=O)Nc1ccc(Cl)cc1Cl` (configuration not stated): the EC50 is above 7.08 µM and the IC50 was above 7.08 µM.
For the compound `Oc1ccc(Cl)cc1Sc1cc(Cl)ccc1O`, the EC50 is above 200 µM and the IC50 amounted to 7.41 µM.
On to `O=C(O)c1ccccc1O.OC1CCCC2CCC[N-]C12.[Cu+]` (configuration not stated), for which the EC50 is above 200 µM and the IC50 is 0.603 µM.
For `O=C(O)C(CSSCC(NC(=O)C(F)(F)F)C(=O)O)NC(=O)C(F)(F)F` (configuration not stated), the EC50 is above 200 µM and the IC50 is above 200 µM.
Consider `O=C1CC23CCCC2(C1)CC(=O)C3` (configuration not stated), for which the EC50 was above 126 µM and the IC50 is above 126 µM.
Take `O=[N+]([O-])c1cccc(C2=NON(c3ncccn3)C3N=CC=CN23)c1` (configuration not stated): the EC50 is above 5.89 µM and the IC50 was above 5.89 µM.
Take `COc1ccccc1C1C(Cl)C(=O)N1n1cnc2ccccc2c1=O` (configuration not stated): the EC50 was above 52.5 µM and the IC50 was above 52.5 µM.
On to `Cn1c(=O)c2[nH]c(N=Nc3c(N)n[nH]c3N)nc2n(C)c1=O`, for which the EC50 is above 200 µM and the IC50 is above 200 µM.
For `c1ccc(COc2ncccc2C2SCCCS2)cc1`, the EC50 is above 200 µM and the IC50 was above 200 µM.
In the case of `Cc1ccc(C=C2C(=O)NC(=O)NC2=O)cc1`, the EC50 was above 155 µM and the IC50 is above 155 µM.
Turning to `Cc1sc2nc(N(C)C)oc(=O)c2c1C`, the EC50 is above 200 µM and the IC50 was 75.9 µM.
Regarding `Cc1nc2ccccc2c(=O)n1-c1ccccc1F`, the EC50 is above 708 µM and the 50% inhibitory concentration (IC50) was 437 µM.
As for `O=C(Nc1ccc(S(=O)(=O)Nc2ncccn2)cc1)c1ccc(C(=O)Nc2ccc(S(=O)(=O)Nc3ncccn3)cc2)cc1`, the EC50 was above 200 µM and the IC50 was above 200 µM.
As for `COc1ccc(/C=C(/NC(=O)c2ccccc2)C(=O)Nc2ccccc2)cc1OC`, the EC50 was above 200 µM and the IC50 is above 200 µM.
With `Cc1cc(C)c2c(c1)CC2N` (configuration not stated), the EC50 is above 1350 µM and the IC50 amounted to 490 µM.
As to `O=c1[nH]c(O)c(/C=N/C(=S)Nc2ccc(S(=O)(=O)Nc3nccs3)cc2)c(=O)[nH]1`, the EC50 is above 200 µM and the IC50 was above 200 µM.
